Drawing on patent US9802941B2, “Compounds and methods for inhibiting histone demethylases” (Gilead Sciences, Inc., priority 2014, dated 2017), this text covers IC50 for 12 compounds.

Read-outs that look alike come from different tables or passages of the source. A value given as a limit tells only on which side of the number the result lay.

Type in all cases: biochemical
In test [1] the target is T1, PHF8 (KDM7) (Homo sapiens, UniProt Q9UPP1).
T1 construct: KDM7 (PHF8); BRIC; 1-1322; Bac
Description: Histone lysine demethylase AlphaLISA assay, PHF8. The protocol: (§1) The compounds of the application, or a pharmaceutically acceptable salt, or solvate, or prodrug thereof, are tested in an in vitro AlphaLISA assay. Enzymes are dissolved in enzyme buffer and incubated before they are added to DMSO solutions of compounds of the application, or a pharmaceutically acceptable salt, or solvate, or prodrug thereof, in enzyme buffer. The reaction mixture is then incubated for an additional period of time before substrate solution is added and then the resulting mixture again incubated. Acceptor beads and suspended Epigenetic Buffer from stock are added and the suspension is again incubated before a suspension of streptavidin donor beads in Epigenetic Buffer is added. After an additional period of incubation, the plates are read.
(§2) The ability of compounds of the application to inhibit the histone lysine demethylase activity in vitro of different enzymes was determined.
(§3) The reaction mixture was incubated for another 10 minutes before 5 μL of substrate solution was added and the resulting mixture was then incubated at room temperature. […] After incubation at room temperature in the dark, the plates were read.
(§4) Enzyme Buffer: 50 mM Hepes (pH 7.4-8.0), 0.003-0.01% Tween-20, 0.1% BSA; 5 μM (NH4)2Fe(SO4)2.

Test [2] concerns the target T2, KDM5B (PLU-1) (Homo sapiens, UniProt Q9UGL1).
T2 construct: BRIC; 1-809; E. coli; host or cells: E. coli
T2 sequence (Q9UGL1 1-809): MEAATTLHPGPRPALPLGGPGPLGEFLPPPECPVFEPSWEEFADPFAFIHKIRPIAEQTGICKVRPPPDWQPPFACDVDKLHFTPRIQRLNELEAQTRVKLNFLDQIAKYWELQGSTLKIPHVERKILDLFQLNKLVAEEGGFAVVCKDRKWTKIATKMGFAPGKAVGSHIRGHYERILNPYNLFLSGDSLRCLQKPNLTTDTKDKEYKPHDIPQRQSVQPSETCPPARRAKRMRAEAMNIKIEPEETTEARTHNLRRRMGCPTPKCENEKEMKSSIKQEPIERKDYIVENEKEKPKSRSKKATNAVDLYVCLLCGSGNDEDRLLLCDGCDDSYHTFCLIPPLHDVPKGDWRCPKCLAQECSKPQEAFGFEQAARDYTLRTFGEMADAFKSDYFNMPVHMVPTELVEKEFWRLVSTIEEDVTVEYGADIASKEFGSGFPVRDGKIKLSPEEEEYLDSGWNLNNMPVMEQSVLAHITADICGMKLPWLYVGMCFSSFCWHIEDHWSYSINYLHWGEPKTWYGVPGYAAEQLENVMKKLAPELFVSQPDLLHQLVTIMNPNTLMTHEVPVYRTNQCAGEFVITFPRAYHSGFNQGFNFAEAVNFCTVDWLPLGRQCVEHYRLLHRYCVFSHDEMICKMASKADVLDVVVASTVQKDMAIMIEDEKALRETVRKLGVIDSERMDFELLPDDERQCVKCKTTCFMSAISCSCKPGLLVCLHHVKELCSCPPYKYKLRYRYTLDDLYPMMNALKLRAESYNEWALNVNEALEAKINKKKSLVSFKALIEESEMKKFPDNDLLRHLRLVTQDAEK
Briefly: Histone lysine demethylase AlphaLISA assay, KDM5B. The protocol: as §1, §2, §3, §4

The target in test [3] is T3, KDM4C (JMJD2C) (Homo sapiens, UniProt Q9H3R0).
T3 construct: KDM4C; BRIC, Denmark; 1-349; E. coli; host or cells: E. coli
T3 sequence (Q9H3R0 1-349): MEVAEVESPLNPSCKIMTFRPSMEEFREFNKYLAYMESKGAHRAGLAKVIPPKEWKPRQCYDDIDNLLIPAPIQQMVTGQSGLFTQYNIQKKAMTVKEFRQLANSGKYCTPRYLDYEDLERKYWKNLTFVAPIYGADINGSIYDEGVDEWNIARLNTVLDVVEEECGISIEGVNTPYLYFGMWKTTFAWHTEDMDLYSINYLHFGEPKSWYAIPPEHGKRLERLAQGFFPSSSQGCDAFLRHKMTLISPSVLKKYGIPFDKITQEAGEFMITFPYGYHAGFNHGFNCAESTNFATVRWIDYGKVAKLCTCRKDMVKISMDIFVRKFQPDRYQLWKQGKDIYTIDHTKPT
Description: Histone lysine demethylase AlphaLISA assay, KDM4C. The protocol: as §1, §2, §3, §4

Test [4] deals with T4, KDM2B (FBXL10) (Homo sapiens, UniProt Q8NHM5).
T4 construct: KDM2B; BPS,; 1-650; Bac; purchased BPS Bioscience, US; host or cells: baculovirus system
T4 sequence (Q8NHM5 1-650): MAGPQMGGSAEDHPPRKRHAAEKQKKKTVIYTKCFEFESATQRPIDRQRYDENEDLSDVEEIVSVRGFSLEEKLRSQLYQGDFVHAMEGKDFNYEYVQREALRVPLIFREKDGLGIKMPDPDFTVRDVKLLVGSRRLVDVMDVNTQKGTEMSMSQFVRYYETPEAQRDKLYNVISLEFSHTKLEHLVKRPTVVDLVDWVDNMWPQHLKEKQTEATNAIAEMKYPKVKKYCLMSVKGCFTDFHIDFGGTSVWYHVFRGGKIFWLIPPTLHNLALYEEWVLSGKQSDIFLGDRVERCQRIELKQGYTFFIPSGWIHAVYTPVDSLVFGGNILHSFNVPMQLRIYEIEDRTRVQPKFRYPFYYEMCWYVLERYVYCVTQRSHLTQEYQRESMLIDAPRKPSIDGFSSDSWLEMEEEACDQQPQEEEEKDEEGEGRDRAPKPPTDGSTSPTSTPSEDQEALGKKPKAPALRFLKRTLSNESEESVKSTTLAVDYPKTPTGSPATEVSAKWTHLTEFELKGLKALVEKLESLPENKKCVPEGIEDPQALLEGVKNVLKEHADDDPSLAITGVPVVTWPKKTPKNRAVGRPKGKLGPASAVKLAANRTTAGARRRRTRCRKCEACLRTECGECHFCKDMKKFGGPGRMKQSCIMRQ
Description: Histone lysine demethylase AlphaLISA assay, KDM2B. The protocol:
as §1, §2, §3, §4

Where [5] appears, read: AlphaLISA, in vitro, read-out: HDME Inhibition PHF8.
The mark [6] stands for this setting: AlphaLISA assay, read-out: HDME Inhibition KDM4C (IC50).
Setting [7] is: AlphaLISA, in vitro, read-out: HDME Inhibition KDM4C.
[8] abbreviates: AlphaLISA, in vitro, read-out: HDME Inhibition KDM2B.
Setting [9] is: AlphaLISA assay, read-out: HDME Inhibition PHF8 (IC50).
The mark [10] stands for this setting: AlphaLISA assay, read-out: HDME Inhibition KDM5B (IC50).
Where [11] appears, read: AlphaLISA, in vitro, read-out: HDME Inhibition KDM5B.

T1 sequence (Q9UPP1 37-440 limits assumed): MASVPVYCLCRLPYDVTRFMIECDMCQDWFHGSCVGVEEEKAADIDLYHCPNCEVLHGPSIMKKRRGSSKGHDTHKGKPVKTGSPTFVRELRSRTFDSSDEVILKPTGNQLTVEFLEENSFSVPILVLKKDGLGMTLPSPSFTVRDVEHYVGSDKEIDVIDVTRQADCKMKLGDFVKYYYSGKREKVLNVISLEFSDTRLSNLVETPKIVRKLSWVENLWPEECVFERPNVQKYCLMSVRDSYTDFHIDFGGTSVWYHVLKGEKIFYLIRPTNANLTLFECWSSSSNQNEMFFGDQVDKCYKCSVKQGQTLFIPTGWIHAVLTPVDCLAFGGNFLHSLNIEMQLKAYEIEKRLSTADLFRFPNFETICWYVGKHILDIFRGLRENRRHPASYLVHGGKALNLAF

Take `Cc1cc(C(=O)O)cc(CNCc2nccn2Cc2cccc(C#N)c2)n1` [Compound 47, 2-{[({1-[(3-cyanophenyl)methyl]-1H-imidazol-2-yl}methyl)amino]methyl}-6-methylpyridine-4-carboxylic acid]: the IC50 was 391 nM in test [1] (setting [5]); 4.08 µM in test [2]; greater than 10 µM in test [3] (setting [6]); greater than 10 µM in test [3] (setting [7]); 1260 nM in test [4] (setting [8]).

Take `Cc1cc(C(=O)O)cc(CNCc2nccn2Cc2cccc(CN)c2)n1` [Compound 48, 2-({[(1-{[3-(aminomethyl)phenyl]methyl}-1H-imidazol-2-yl)methyl]amino}methyl)-6-methylpyridine-4-carboxylic acid]: the IC50 in test [1] (setting [9]) was greater than 10000 nM; in test [1] (setting [5]), greater than 10000 nM; in test [2] (setting [10]), greater than 10 µM; in test [2] (setting [11]), greater than 10 µM; in test [3] (setting [6]), greater than 10 µM; in test [3] (setting [7]), greater than 10 µM. The IC50 was greater than 10000 nM in test [4] (AlphaLISA assay, read-out: HDME Inhibition KDM2B (IC50)) and greater than 10000 nM in test [4] (setting [8]).

As for `Cc1cc(C(=O)O)cc(CNCc2nnc(C(C)(C)C)n2Cc2ccc(F)cc2)n1` [Compound 49, 2-{[({5-tert-butyl-4-[(4-fluorophenyl)methyl]-4H-1,2,4-triazol-3-yl}methyl)amino]methyl}-6-methylpyridine-4-carboxylic acid], the IC50 in test [1] (setting [5]) is 1110 nM; in test [2] (setting [10]) it was greater than 10 µM; in test [2] (setting [11]) it was greater than 10 µM; in test [3] (setting [6]), greater than 10 µM; in test [3] (setting [7]), greater than 10 µM; in test [4] (setting [8]), 838 nM.

For `Cc1cc(C(=O)O)cc(CNCc2ncc(CN(C)C)n2Cc2ccc(F)cc2)n1` [Compound 50, 2-{[({5-[(dimethylamino)methyl]-1-[(4-fluorophenyl)methyl]-1H-imidazol-2-yl}methyl)amino]methyl}-6-methylpyridine-4-carboxylic acid], the IC50 in test [1] (setting [5]) was 1040 nM; in test [2] (setting [10]) it was greater than 10 µM; in test [2] (setting [11]) it was greater than 10 µM; in test [3] (setting [6]), greater than 10 µM; in test [3] (setting [7]), greater than 10 µM; in test [4] (setting [8]), 692 nM.

Consider `Cc1cc(C(=O)O)cc(CNCc2nncn2CCc2cc(Cl)cc(Cl)c2)n1` [Compound 51, 2-{[({4-[2-(3,5-dichlorophenyl)ethyl]-4H-1,2,4-triazol-3-yl}methyl)amino]methyl}-6-methylpyridine-4-carboxylic acid], for which the IC50 was 3880 nM in test [1] (setting [5]); greater than 10 µM in test [2] (setting [10]); greater than 10 µM in test [2] (setting [11]); greater than 10 µM in test [3] (setting [6]); greater than 10 µM in test [3] (setting [7]); 2830 nM in test [4] (setting [8]).

For `CCc1cnc(CNCc2cc(C(=O)O)cc(C)n2)n1CCc1ccccc1` [Compound 54, 2-[({[5-ethyl-1-(2-phenylethyl)-1H-imidazol-2-yl]methyl}amino)methyl]-6-methylpyridine-4-carboxylic acid], the IC50 was 1190 nM in test [1] (setting [5]); greater than 10 µM in test [2] (setting [10]); greater than 10 µM in test [2] (setting [11]); greater than 10 µM in test [3] (setting [6]); greater than 10 µM in test [3] (setting [7]); 1140 nM in test [4] (setting [8]).

For `O=C(O)c1cc(CO)nc(CNCc2nncn2CCc2cc(Cl)cc(Cl)c2)c1` [Compound 55, 2-{[({4-[2-(3,5-dichlorophenyl)ethyl]-4H-1,2,4-triazol-3-yl}methyl)amino]methyl}-6-(hydroxymethyl)pyridine-4-carboxylic acid], the IC50 in test [1] (setting [5]) is 1300 nM; in test [2] it was 1.78 µM; in test [3] (setting [6]), greater than 10 µM; in test [3] (setting [7]) it was greater than 10 µM; in test [4] (setting [8]), 656 nM.

Consider `Cc1cc(C(=O)O)cc(CNCc2nncn2CCCc2ccccc2)n1` [Compound 56], for which the IC50 in test [1] (setting [5]) is 883 nM; in test [2] (setting [10]), greater than 10 µM; in test [2] (setting [11]) it was greater than 10 µM; in test [3] (setting [6]), greater than 10 µM; in test [3] (setting [7]), greater than 10 µM; in test [4] (setting [8]), 482 nM.

For `Cc1cc(C(=O)O)cc(CNCc2nnc(C)n2Cc2ccc(Cl)c(Cl)c2)n1` [Compound 57, 2-{[({4-[(3,4-dichlorophenyl)methyl]-5-methyl-4H-1,2,4-triazol-3-yl}methyl)amino]methyl}-6-methylpyridine-4-carboxylic acid], the IC50 in test [1] (setting [5]) is 1270 nM; in test [2] (setting [10]), greater than 10 µM; in test [2] (setting [11]), greater than 10 µM; in test [3] (setting [6]), greater than 10 µM; in test [3] (setting [7]) it was greater than 10 µM; in test [4] (setting [8]), 1140 nM.

Turning to `Cc1cc(C(=O)O)cc(CNCCc2nncn2Cc2ccc(C(F)(F)F)cc2)n1` [Compound 60, 2-methyl-6-({[2-(4-{[4-(trifluoromethyl)phenyl]methyl}-4H-1,2,4-triazol-3-yl)ethyl]amino}methyl)pyridine-4-carboxylic acid], the IC50 in test [1] (setting [9]) is greater than 10000 nM; in test [1] (setting [5]), greater than 10000 nM; in test [2] (setting [11]) it was 0.526 µM; in test [3] (setting [6]) it was greater than 10 µM; in test [3] (setting [7]) it was greater than 10 µM; in test [4] (setting [8]), 1620 nM.

On to `Cc1cc(C(=O)O)cc(CNCc2nccn2CCc2ccccc2)n1` [Compound 61, 2-methyl-6-[({[1-(2-phenylethyl)-1H-imidazol-2-yl]methyl}amino)methyl]pyridine-4-carboxylic acid], for which the IC50 was 2550 nM in test [1] (setting [5]); greater than 10 µM in test [2] (setting [10]); greater than 10 µM in test [2] (setting [11]); greater than 10 µM in test [3] (setting [6]); greater than 10 µM in test [3] (setting [7]); 4180 nM in test [4] (setting [8]).

Regarding `O=C(O)c1cc(CO)nc(CNCc2nncn2Cc2ccc(F)cc2)c1` [Compound 62, 2-{[({4-[(4-fluorophenyl)methyl]-4H-1,2,4-triazol-3-yl}methyl)amino]methyl}-6-(hydroxymethyl)pyridine-4-carboxylic acid], the IC50 in test [1] (setting [5]) came to 307 nM; in test [2], 0.231 µM; in test [3] (setting [7]) it was 7.37 µM; in test [4] (setting [8]), 244 nM.
